{
  "source": "patent US20210353749A1",
  "about": "“GUANABENZ AS AN ADJUVANT FOR IMMUNOTHERAPY” (UNIVERSITÉ CATHOLIQUE DE LOUVAIN, priority 2018, published 2021)",
  "key": {"[1]": {"test_system": "IFNγ producing CD8+ T cells", "assay": "Immunization with ovalbumin", "type": "in vivo, C57BL/6J mice", "settings": "100 μg (5 mg/kg) guanabenz with OVA/Alhydrogel, vs non-immunized control", "experimental": "Immunization with Ovalbumin: C57BL/6J mice were immunized once by intraperitoneal (i.p.) injection of 200 ug of OVA protein adsorbed onto Alhydrogel adjuvant 2% (Sigma) These mice were administered 100 μg (5 mg/kg) of guanabenz 2 hours before the immunization and daily after the immunization. […] Intracellular IFNγ staining: one week after the immunization, the blood and spleen of each mouse were collected. Cells derived from the spleen and blood of each immunized mouse were cultured for 1 hour in 96 well U bottomed plates at 37° C. in the presence of 10 μM OVA peptide. Brefeldin A (10 μg/mL) was added to each well and the cells were incubated for an additional 4 hours. The immune response of each mouse was evaluated by measuring the amount of IFNγ producing CD8^+ T cells using antibodies against CD8 and IFNγ. Samples were then examined by FACS Fortessa flow cytometry."}, "TiRP tumor": {"test_system": "TiRP tumor", "assay": "TiRP melanoma model with adoptive cell transfer of naïve P1A-specific CD8+ T cells", "type": "in vivo, mouse", "settings": "guanabenz 5 mg/kg i.p. daily with ACT of 2 million naïve T cells, 4 days after the ACT, vs control; FIG. 6", "experimental": "FIG. 6 is a histogram showing the tumor infiltration of P1A-specific CD8^+ T cells evaluated 4 days after ACT of naïve TCRP1A CD8^+ T cells by FACS in mice that received guanabenz (5 mg/kg, i.p.) or vehicle (PBS, i.p.). In the preceding experiments, before being transferred to TiRP-tumor bearing mice, the P1A-specific CD8^+ T were pre-activated in vitro by co-culture with irradiated L1210-P1A-B7.1 cells as described hereinabove. […] TiRP-tumor bearing mice were administered an adoptive cell transfer (ACT) of 2 million of naïve P1A-specific CD8^+ T cells and daily injections of guanabenz from the day of the ACT. […] Thus, when the mice were administered guanabenz, the transferred naïve CD8^+ T cells were properly primed and populated the tumor."}, "Mouse NK cells": {"test_system": "Mouse NK cells", "assay": "In vitro NK cell function (CD107a degranulation)", "type": "cell-based", "settings": "guanabenz 20 μM, 16 hours, RMA-S target cells; FIG. 10", "experimental": "Mouse NK cells: murine NK cells were isolated from mouse splenocytes using anti-CD49b magnetic beads. Murine NK cells were isolated from mouse splenocytes using anti-CD49b magnetic beads and were activated in vitro by co-incubation with irradiated RMA-S cells. 4 days after activation, they were collected and plated at 50,000 cells per well in a 96 U plate with 20 μM of guanabenz and incubated at 37° C. overnight prior to their use in the assay on the next day. On the day of the assay, the culture supernatant was removed from the cells and the cells were washed once with complete medium to remove the drug. The target cells (RMA-S cells) were added to the wells at a ratio of 1:1. Control wells containing either only NK cells or target cells were also included for each plate. CD107a-APC was added to each well at the same time as addition of the target cells. The plate was then incubated at 37° C. for 90 minutes. At the end of the incubation period the cells were harvested and washed once with PBS. They were stained with anti-mouse CD49b-PE antibody for 15 minutes. The cells were then washed and resuspended in PBS and analyzed using FACS Fortessa flow cytometer."}, "B16F10 melanoma tumors": {"test_system": "B16F10 melanoma tumors", "assay": "B16F10 transplanted melanoma model", "type": "in vivo, mouse", "settings": "guanabenz alone, 2.5 mg/kg i.p. daily from 7 days after inoculation, vs PBS and isotype; FIG. 9", "experimental": "Gender and age matched CD57BL/6 wild-type mice were used in the B16F10 transplanted melanoma model.\nGender-matched, 7-9 weeks old CD57BL/6 wild-type mice were subcutaneously injected with 1 million of B16F10 tumor cells. Mice were randomized based on the tumor size one week after the injection of tumor cells. 7 days after tumor inoculation, daily injections of guanabenz (2.5 mg/kg, i.p.) or vehicle (PBS, i.p.) were administered to the mice. Mice then received 4 injections (intraperitoneally also referred to as i.p.) of a dose of 200 μg/mouse anti-PD-1 antibody (BioXcell, clone RMP1-14) or RatIgG2a isotype (clone 2A3, Bio-X-Cell) at 3-day intervals starting 1 day after guanabenz or vehicle administration."}, "[2]": {"test_system": "T429.11 transplanted tumor", "assay": "TiRP-derived T429.11 transplanted melanoma model", "type": "in vivo, mouse", "experimental": "TiRP-derived T429.11 transplanted melanoma model: T429.11 clone was derived from an induced Amela TiRP tumor referred to as T429. It was cloned from the T429 induced melanoma primary tumor line. Two million of T429.11 tumor cells were injected subcutaneously into recipient mice for tumor establishment (Zhu et al, Nat Commun 2017, 10; 8(1):1404).\nT cells were incubated with guanabenz (10, 20, or 40 μM) for 16 h to 24 h as indicated. Mice received a daily intra-peritoneal injection of guanabenz (5 mg/kg) or vehicle (PBS) from the day of randomization (and the day of ACT when applicable) until the day of sacrifice.\nThe T429.11 transplanted melanoma model was previously shown not to respond to anti-PD-1 and anti-CTLA4 therapy (Zhu et al., Nature communications. Nov. 10 2017; 8(1):1404). T429.11 transplanted tumor bearing mice received daily injections of guanabenz (5 mg/kg, i.p.) or vehicle (PBS, i.p.) from the day when the tumor size was around 1000 mm^3 (day 1) until the day of sacrifice (day 6). […] As shown on FIG. 2B, the decreased tumor growth was accompanied with an increased tumor infiltration of CD8^+ T cells."}},
  "data": [
    {"smiles": "NC(N)=N/N=C/c1c(Cl)cccc1Cl", "note": "[guanabenz, 2-[(E)-(2,6-dichlorophenyl)methylideneamino]guanidine]", "values": [
      {"measurement": "percentage of IFNγ producing CD8+ T cells among total CD8+ T, blood", "setting": "[1]; blood cells with 10 μM OVA peptide, FIG. 8A", "value": "significant increase"},
      {"measurement": "percentage of IFNγ producing CD8+ T cells among total CD8+ T, spleen", "setting": "[1]; spleen cells with 10 μM OVA peptide, FIG. 8B", "value": "significant increase"},
      {"measurement": "tumor infiltration of P1A-specific CD8+ T cells", "setting": "TiRP tumor", "value": "significantly increased"},
      {"measurement": "NK cell degranulation (FACS detection of CD107a)", "setting": "Mouse NK cells", "value": "significantly increased"},
      {"measurement": "growth of B16F10 melanoma tumors", "setting": "B16F10 melanoma tumors", "value": "did significantly reduce"},
      {"measurement": "tumor growth", "setting": "[2]; 5 mg/kg i.p. daily from tumor size around 1000 mm^3 (day 1) to day 6, vs vehicle, FIG. 2A", "value": "inhibited tumor growth"},
      {"measurement": "tumor infiltration of CD8+ T cells (FACS)", "setting": "[2]; 5 mg/kg i.p. daily, day of sacrifice (day 6), vs vehicle, FIG. 2B", "value": "increased"}
    ]}
  ]
}
